Tests used:
[1] = Vapor pressure reduction: malodors in closed flask headspace, cold finger collection, GC FID; assay type: physicochemical; details: with 1 g active in separate dish, sealed 500 mL flask, four hours, cold finger 10° C.
Experimental: Two 500 mL Erlenmeyer flasks were prepared with a blend of five malodor substances (200 mg total; indole, methyl phenyl acetate, skatol, p-cresyl isovalerate, isoamyl phenylacetate) in a small dish. To one flask, in a separate small dish, was added 1 g of 5-methyl-2-(1-methylethyl)-cyclohexanol acetate. Each flask was sealed with a cold finger through which water at 10° C. was passed. After four hours, the flasks were opened and the cold fingers were washed with diethyl ether. This eluent is representative of the headspace above the sample, and quantifies the malodor concentration in the air. The collected diethyl ether fractions were made to a standard volume and analyzed by gas chromatography (GC FID). This experiment is meant to analyze the interaction of malodor with 5-methyl-2-(1-methylethyl)-cyclohexanol acetate in a way that mimics a consumer's experience.

[2] = Malodor reduction via sensory testing, sweat malodor model; parameters: species or system human; details: trained female panel N=9, 1=no odor to 10=strongest imaginable, averaged, malodor only 5.8, 0.0% control 5.1
Experimental: (§1) A trained sensory panel consisting of females, (N=9) ages 40-55 years old evaluated the samples. Panelists are regularly trained on fragrance and malodor intensity scoring and must pass routine screening and calibration tests to remain on the panel. Panelist onboarding and orientation was performed following ASTM Committee E-18 on Sensory Evaluation of Materials and Products, Guidelines for the Selection and Training of Sensory Panel Members (ASTM STP758, American Society for Testing and Materials, 1981, pp. 1-35). Panelists were selected based on health, interest, availability, descriptive and scaling ability, olfactory acuity, attitude and personality. Panelists are introduced to intensity measurement using selected intensity standards and exercised in the use of the scaling system to quantify intensity.
(§2) Training and evaluation was performed for six weeks following orientation. Each panelist completed practice sessions where they were exposed to different types of odors (malodor, fragrance, etc.) and different substrates (fabric, clothing, blotter cards, jars, etc.). Panelist inclusion was dependent upon panel administrator discussions, specific response evaluation, and comparison to standards.
(§3) In this example, feminine wash was formulated with various concentrations of 5-methyl-2-(1-methylethyl)-cyclohexanol acetate, as shown in Table 1 below. A sample without of 5-methyl-2-(1-methylethyl)-cyclohexanol acetate was used as a control.
(§4) The sweat malodor model is comprised of malodors including 3-methyl-2-hexenoic acid and 3-mercapto-3-methyl-1-hexanol. The feminine odor model contains acetic acid, 2-methyl-butyric acid, valeric acid and trimethyl amine. The trained panelists subjectively evaluated the samples using a 10-point scoring scale (1=no odor to 10=strongest imaginable). Panelists are first shown the malodor only sample as a reference, and asked to rate its odor intensity. Panelists are then shown the test samples in a blinded fashion labelled with a 3 digit code. There is a 45 second wait time between samples to prevent olfactive fatigue. […]

[3] = Malodor reduction via sensory testing, feminine (vaginal) odor model; parameters: species or system human; details: trained female panel N=9, 1=no odor to 10=strongest imaginable, averaged, malodor only 6.0, 0.0% control 5.3
Experimental: as §1, §2, §3, §4

CC(=O)O[C@@H]1C[C@H](C)CC[C@H]1C(C)C [5-methyl-2-(1-methylethyl)-cyclohexanol acetate]
Relative Amount of Malodor: skatol ([1]; without active 0.06): 0.0003
Relative Amount of Malodor: p-cresyl isovalerate ([1]; without active 0.10): 0.0002
Relative Amount of Malodor: isoamyl phenylacetate ([1]; without active 1.20): 0.0000
Relative Amount of Malodor: indole ([1]; without active 1.30): 0.0300
Relative Amount of Malodor: methyl phenyl acetate ([1]; without active 1.50): 0.0000
Sweat Malodor intensity rating from 1 to 10 ([2]; 0.1% active in feminine wash): 4.8
Sweat Malodor intensity rating from 1 to 10 ([2]; 0.2% active in feminine wash): 3.0
Sweat Malodor intensity rating from 1 to 10 ([2]; 0.5% active in feminine wash): 2.2
Feminine (Vaginal) Malodor intensity rating from 1 to 10 ([3]; 0.1% active in feminine wash): 4.5
Feminine (Vaginal) Malodor intensity rating from 1 to 10 ([3]; 0.2% active in feminine wash): 3.3
Feminine (Vaginal) Malodor intensity rating from 1 to 10 ([3]; 0.5% active in feminine wash): 2.6
